The numbers were not newly measured in patent publication US20060063794A1, “Method of attenuating graft rejection” (Fujisawa Pharmaceutical Co., Ltd., priority 2004, published 2006), which cites them from elsewhere.

One data set concerns rat cardiac allografts. Particulars: rats, 20 mg/kg for ten days; cited from earlier work.
The conditions of data set [1]: MMF 2 g/day in addition to Tacrolimus and corticosteroid; cited from earlier work.

Take `N#Cc1ccc(NC(=O)C(C#N)C(=O)C2CC2)cc1` (centres unmarked) [MNA 279, reference compound]: the “Prolongation of graft survival” value in the data set with rat cardiac allografts was “about two”. Regarding `COc1c(C)c2c(c(O)c1C/C=C(\C)CCC(=O)OCCN1CCOCC1)C(=O)OC2` [MMF], the AR rate in data set [1] is 7.1%.
